The values below come from patent US10280159B2 (AbbVie Deutschland GmbH & Co. KG, priority 2015, dated 2019).

Common to all, as to type: cell-based
The target of one assay is T1, human S1PR4 (Homo sapiens, UniProt O95977).
T1 construct: host or cells: CHO-K1
T1 sequence (O95977 1-384): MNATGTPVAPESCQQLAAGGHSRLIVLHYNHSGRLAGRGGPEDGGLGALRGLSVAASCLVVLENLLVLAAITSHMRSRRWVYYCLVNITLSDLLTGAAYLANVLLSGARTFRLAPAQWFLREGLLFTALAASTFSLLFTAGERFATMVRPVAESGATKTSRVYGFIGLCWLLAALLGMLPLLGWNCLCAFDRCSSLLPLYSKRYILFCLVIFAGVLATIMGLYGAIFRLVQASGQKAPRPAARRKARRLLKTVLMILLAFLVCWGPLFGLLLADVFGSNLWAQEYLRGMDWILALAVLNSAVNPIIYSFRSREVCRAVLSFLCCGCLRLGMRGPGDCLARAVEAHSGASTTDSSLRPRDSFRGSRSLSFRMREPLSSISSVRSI
Kind of assay: Intracellular Ca2+ release (FLIPR) agonist potency, S1P4. Particulars: recombinant CHO-K1 cells expressing human S1PR4, aequorin, Gq/i5; Calcium 5 FLIPR; read-out: S1P4 EC50. As for the experimental part: (§1) Agonistic activity was measured using the method described below.
(§2) Intracellular Ca^2+ Release
(§3) Agonist potency and intrinsic activity was assessed by measurement of intracellular Ca^2+ release. Recombinant CHO-K1 cells (Euroscreen, Brussels, Belgium) expressing human S1PR5, S1PR1, S1PR3 or S1PR4 receptors, aequorin, and GTP binding protein Gq/i5 were cultured using a medium containing nutrient mixture F-12 Ham (Sigma-Aldrich) with 10% FBS, and 100 μg/mL gentamicin and equilibrated at 5% CO2.
(§4) Phospho-fingolimod was used as positive control. Antagonists were pre-incubated for 10 min with cells before addition of the agonist (phospho-fingolimod at EC80). Measurements were performed using a fluorometric imaging plate reader FLIPR®tetra (Molecular Devices). Agonist at the human S1P receptors were characterized by deducing EC50 (potency) values from a nonlinear fit to the measured fluorescence raw data after normalization to the reference agonist (phospho-fingolimod) curve.

A further assay deals with T2, human S1PR1 (Homo sapiens, UniProt P21453).
T2 construct: host or cells: CHO-K1
T2 sequence (P21453 whole entry): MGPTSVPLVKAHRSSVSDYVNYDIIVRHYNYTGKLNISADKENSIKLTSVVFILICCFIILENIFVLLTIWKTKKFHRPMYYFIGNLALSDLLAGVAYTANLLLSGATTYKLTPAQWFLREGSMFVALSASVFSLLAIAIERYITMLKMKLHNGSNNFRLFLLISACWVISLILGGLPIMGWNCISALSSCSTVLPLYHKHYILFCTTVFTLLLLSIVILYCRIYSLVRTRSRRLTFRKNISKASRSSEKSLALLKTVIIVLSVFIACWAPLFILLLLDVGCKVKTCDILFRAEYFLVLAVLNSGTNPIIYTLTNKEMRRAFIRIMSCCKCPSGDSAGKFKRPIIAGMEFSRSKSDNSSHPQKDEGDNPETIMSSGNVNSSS
Kind of assay: Intracellular Ca2+ release (FLIPR) agonist potency, S1P1. The note with it: recombinant CHO-K1 cells expressing human S1PR1, aequorin, Gq/i5; Calcium 5 FLIPR; read-out: S1P1 EC50. The method, then: as §1, §2, §3, §4

For another assay, the target named is T3, human S1PR5 (Homo sapiens, UniProt Q9H228).
T3 construct: host or cells: CHO-K1
T3 sequence (Q9H228 whole entry): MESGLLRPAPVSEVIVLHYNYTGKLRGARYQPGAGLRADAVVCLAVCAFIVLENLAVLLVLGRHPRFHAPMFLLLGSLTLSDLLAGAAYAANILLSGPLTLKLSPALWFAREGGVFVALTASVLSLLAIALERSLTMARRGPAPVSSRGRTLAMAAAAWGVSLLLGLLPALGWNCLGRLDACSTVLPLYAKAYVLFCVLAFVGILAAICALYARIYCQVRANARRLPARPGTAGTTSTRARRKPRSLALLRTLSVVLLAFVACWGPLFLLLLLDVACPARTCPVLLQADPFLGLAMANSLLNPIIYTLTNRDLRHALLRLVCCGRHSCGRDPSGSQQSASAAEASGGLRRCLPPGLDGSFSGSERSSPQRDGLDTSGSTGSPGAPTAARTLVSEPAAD
Kind of assay: Intracellular Ca2+ release (FLIPR) agonist potency, S1P5. The note with it: recombinant CHO-K1 cells expressing human S1PR5, aequorin, Gq/i5; Calcium 5 FLIPR; read-out: S1P5 EC50 range. The method, then: as §1, §2, §3, §4

With `CCc1cccc(Cl)c1COc1ccc2c(c1)CCC(OCC(=O)O)C2` (single isomer, unassigned) [Compound 240], the figures for the concentration for a half-maximal effect (EC50) on human S1PR4, on human S1PR1 and at human S1PR5 were more than 1000 nM, more than 1000 nM and 10 to 100 nM, respectively.

`O=C(O)C1CN(C2COc3cc(OCc4ccccc4F)ccc3C2)C1` (stereo not drawn) [Compound 3, 1-(7-((2-fluorobenzyl)oxy)chroman-3-yl)azetidine-3-carboxylic acid]: the EC50 at human S1PR4 is more than 1000 nM; on human S1PR1 it was more than 1000 nM; on human S1PR5 it was 1000 to 10000 nM.

Regarding `O=C(O)C1CN(C2COc3cc(C#Cc4cccc(F)c4F)ccc3C2)C1` (stereo not drawn) [Compound 26, 1-(7-((2,3-difluorophenyl)ethynyl)chroman-3-yl)azetidine-3-carboxylic acid], the EC50 on human S1PR4 is more than 1000 nM; on human S1PR1 it was more than 1000 nM; at human S1PR5 it was 10 to 100 nM.

As to `O=C(O)C12CC1CCN2C1CCc2cc(OCc3c(Cl)cccc3Cl)ccc2C1` (stereo not drawn) [Compound 36, 2-(6-((2,6-dichlorobenzyl)oxy)-1,2,3,4-tetrahydronaphthalen-2-yl)-2-azabicyclo[3.1.0]hexane-1-carboxylic acid], the EC50 on human S1PR4 was more than 1000 nM; on human S1PR1, more than 1000 nM; on human S1PR5 it was 100 to 1000 nM.

For the compound `CC(C)C(NC1CCc2cc(OCc3c(Cl)cccc3Cl)ccc2C1)C(=O)O` (stereo not drawn) [Compound 37, 2-((6-((2,6-dichlorobenzyl)oxy)-1,2,3,4-tetrahydronaphthalen-2-yl)amino)-3-methylbutanoic acid], the EC50 was more than 1000 nM at human S1PR4, more than 1000 nM on human S1PR1 and 100 to 1000 nM at human S1PR5.

For `O=C(O)C1CN(C2COc3cc(C#CC4CCCCC4)ccc3C2)C1` (stereo not drawn) [Compound 39, 1-(7-(cyclohexylethynyl)chroman-3-yl)azetidine-3-carboxylic acid], the EC50 at human S1PR4 is more than 1000 nM; at human S1PR1, more than 1000 nM; on human S1PR5 it was 100 to 1000 nM.

On to `Cc1cccc(C#Cc2ccc3c(c2)OCC(N2CC(C(=O)O)C2)C3)c1` (stereo not drawn) [Compound 43, 1-(7-((3-(methyl)phenyl)ethynyl)chroman-3-yl)azetidine-3-carboxylic acid], for which the EC50 was less than 1000 nM on human S1PR4, more than 1000 nM on human S1PR1 and 100 to 1000 nM on human S1PR5.

For `CCOc1ccc(C#Cc2ccc3c(c2)OCC(N2CC(C(=O)O)C2)C3)cc1` (stereo not drawn) [Compound 45, 1-(7-((4-ethoxyphenyl)ethynyl)chroman-3-yl)azetidine-3-carboxylic acid], the EC50 at human S1PR4 was more than 1000 nM; at human S1PR1, less than 1000 nM; at human S1PR5 it was 100 to 1000 nM.

Regarding `O=C(O)C1CN(C2COc3cc(OCc4ccc(Cl)cc4)ccc3C2)C1` (stereo not drawn) [Compound 46, 1-(7-((4-chlorobenzyl)oxy)chroman-3-yl)azetidine-3-carboxylic acid], the EC50 was more than 1000 nM on human S1PR4, more than 1000 nM at human S1PR1 and 1000 to 10000 nM on human S1PR5.

Regarding `O=C(O)C1(CNC2COc3cc(OCc4c(Cl)cccc4Cl)ccc3C2)CC1` (stereo not drawn) [Compound 49, 1-(((7-((2,6-dichlorobenzyl)oxy)chroman-3-yl)amino)methyl)cyclopropanecarboxylic acid], the values for the concentration for a half-maximal effect (EC50) at human S1PR4, on human S1PR1 and at human S1PR5 were less than 1000 nM, more than 1000 nM and 100 to 1000 nM, respectively.

Turning to `O=C(O)C1CN(C2COc3cc(OCc4cc(Cl)ccc4Cl)ccc3C2)C1` (stereo not drawn) [Compound 52, 1-(7-((2,5-dichlorobenzyl)oxy)chroman-3-yl)azetidine-3-carboxylic acid], the EC50 on human S1PR4 was more than 1000 nM; on human S1PR1, more than 1000 nM; on human S1PR5, 1000 to 10000 nM.

For `Cc1cccc(F)c1COc1ccc2c(c1)OCC(N1CC(C(=O)O)C1)C2` (stereo not drawn) [Compound 53, 1-(7-((2-fluoro-6-methylbenzyl)oxy)chroman-3-yl)azetidine-3-carboxylic acid], the EC50 on human S1PR4 is more than 1000 nM; at human S1PR1, more than 1000 nM; at human S1PR5 it was 100 to 1000 nM.

As for `O=C(O)C1CN(C2COc3cc(OCc4ccc(C(F)(F)F)cc4)ccc3C2)C1` (stereo not drawn) [Compound 57, 1-(7-((4-(trifluoromethyl)benzyl)oxy)chroman-3-yl)azetidine-3-carboxylic acid], the EC50 at human S1PR4 is more than 1000 nM; at human S1PR1, more than 1000 nM; on human S1PR5, 1000 to 10000 nM.

For the compound `Cc1cccc(COc2ccc3c(c2)OCC(N2CC(C(=O)O)C2)C3)c1` (stereo not drawn) [Compound 58, 1-(7-((3-methylbenzyl)oxy)chroman-3-yl)azetidine-3-carboxylic acid], the EC50 is more than 1000 nM on human S1PR4, more than 1000 nM on human S1PR1 and 1000 to 10000 nM on human S1PR5.

As to `O=C(O)C1CN(C2COc3cc(OCc4cccc(C(F)(F)F)c4)ccc3C2)C1` (stereo not drawn) [Compound 59, 1-(7-((3-(trifluoromethyl)benzyl)oxy)chroman-3-yl)azetidine-3-carboxylic acid], the EC50 on human S1PR4 is less than 1000 nM; at human S1PR1, more than 1000 nM; at human S1PR5, 100 to 1000 nM.

With `O=C(O)C1CN(C2COc3cc(OCc4c(F)cccc4Cl)ccc3C2)C1` (stereo not drawn) [Compound 61, 1-(7-((2-chloro-6-fluorobenzyl)oxy)chroman-3-yl)azetidine-3-carboxylic acid], the 50% effective concentration (EC50) on human S1PR4 was more than 1000 nM; on human S1PR1, more than 1000 nM; on human S1PR5, 100 to 1000 nM.

In the case of `O=C(O)C1CN(C2COc3cc(OCc4ccccc4C(F)(F)F)ccc3C2)C1` (stereo not drawn) [Compound 62, 1-(7-((2-(trifluoromethyl)benzyl)oxy)chroman-3-yl)azetidine-3-carboxylic acid], the EC50 on human S1PR4 was more than 1000 nM; at human S1PR1 it was more than 1000 nM; on human S1PR5, 10 to 100 nM.

In the case of `O=C(O)C1CN(C2COc3cc(OCc4ccccc4Cl)ccc3C2)C1` (stereo not drawn) [Compound 63, 1-(7-((2-chlorobenzyl)oxy)chroman-3-yl)azetidine-3-carboxylic acid], the EC50 on human S1PR4 is more than 1000 nM; at human S1PR1 it was more than 1000 nM; on human S1PR5, 100 to 1000 nM.

As to `Cc1cccc(Cl)c1COc1ccc2c(c1)OCC(N1CC(C(=O)O)C1)C2` (stereo not drawn) [Compound 71, 1-(7-((2-chloro-6-methylbenzyl)oxy)chroman-3-yl)azetidine-3-carboxylic acid], the EC50 was more than 1000 nM on human S1PR4, more than 1000 nM at human S1PR1 and 100 to 1000 nM on human S1PR5.

As for `CCc1cccc(F)c1COc1ccc2c(c1)OCC(N(C)CC(=O)O)C2` (stereo not drawn) [Compound 72, 2-((7-((2-ethyl-6-fluorobenzyl)oxy)chroman-3-yl)(methyl)amino)acetic acid], the EC50 was less than 1000 nM at human S1PR4, more than 1000 nM on human S1PR1 and less than 10 nM on human S1PR5.

For the compound `CCc1cccc(Cl)c1COc1ccc2c(c1)CCC(NCC1(C(=O)O)CC1)C2` (stereo not drawn) [Compound 76, 1-(((6-((2-chloro-6-ethylbenzyl)oxy)-1,2,3,4-tetrahydronaphthalen-2-yl)amino)methyl)cyclopropanecarboxylic acid], the EC50 on human S1PR4 is less than 1000 nM; on human S1PR1, less than 1000 nM; on human S1PR5, less than 10 nM.

For `Cc1cc(COc2ccc3c(c2)OCC(N2CC(C(=O)O)C2)C3)ccc1F` (stereo not drawn) [Compound 84, 1-[7-[(4-fluoro-3-methyl-phenyl)methoxy]chroman-3-yl]azetidine-3-carboxylic acid], the EC50 on human S1PR4 is more than 1000 nM; on human S1PR1, more than 1000 nM; on human S1PR5, 1000 to 10000 nM.

With `O=C(O)C1CN(C2COc3cc(OCc4ccc(F)c(C(F)(F)F)c4)ccc3C2)C1` (stereo not drawn) [Compound 85, 1-[7-[[4-fluoro-3-(trifluoromethyl)phenyl]methoxy]chroman-3-yl]azetidine-3-carboxylic acid], the EC50 on human S1PR4 is more than 1000 nM; on human S1PR1, more than 1000 nM; on human S1PR5, 1000 to 10000 nM.

In the case of `COc1cccc(COc2ccc3c(c2)OCC(N2CC(C(=O)O)C2)C3)c1F` (stereo not drawn) [Compound 86, 1-[7-[(2-fluoro-3-methoxy-phenyl)methoxy]chroman-3-yl]azetidine-3-carboxylic acid], the EC50 at human S1PR4 was more than 1000 nM; at human S1PR1, more than 1000 nM; at human S1PR5, 1000 to 10000 nM.

Take `Cc1cc(F)cc(COc2ccc3c(c2)OCC(N2CC(C(=O)O)C2)C3)c1` (stereo not drawn) [Compound 87, 1-[7-[(3-fluoro-5-methyl-phenyl)methoxy]chroman-3-yl]azetidine-3-carboxylic acid]: the values for the EC50 on human S1PR4, on human S1PR1 and on human S1PR5 were more than 1000 nM, more than 1000 nM and 1000 to 10000 nM, respectively.

Consider `Cc1ccc(COc2ccc3c(c2)OCC(N2CC(C(=O)O)C2)C3)c(F)c1` (stereo not drawn) [Compound 88, 1-[7-[(2-fluoro-4-methyl-phenyl)methoxy]chroman-3-yl]azetidine-3-carboxylic acid], for which the EC50 on human S1PR4 was more than 1000 nM; on human S1PR1, more than 1000 nM; on human S1PR5, 1000 to 10000 nM.

By EC50 is commonly meant the midpoint of the concentration-response curve.
